Assay [1] deals with Wnt activity (Sp5-Luc reporter, SW480 colon carcinoma cells). The assay is described as follows: Sp5-Luc Wnt reporter gene screening assay in SW480 colon carcinoma cells. Conditions: Homo sapiens. In general terms: In a reporter assay the amount or activity of a reporter protein is the signal.
Description: The screening assay for Wnt activity is described as follows.
SW480 colon carcinoma cells were transduced with a lentiviral vector expressing luciferase with a human Sp5 promoter consisting of a sequence of eight TCF/LEF binding sites. SW480 cells stably expressing the Sp5-Luc reporter gene and a hygromycin resistance gene were selected by treatment with 150 μg/ml of hygromycin for 7 days. These stably transduced SW480 cells were expanded in cell culture and used for all further screening activities. For Sp5-Luc reporter gene assays, the cells were plated at 10,000 cells/well in 96-well plates with growth medium containing 10% fetal calf serum and incubated overnight at 37° C. and 5% CO2. […] Compound transfer from serially diluted source plates to assay plates containing the cells was accomplished using a pintool (Multimek 96, Beckman equipped with V&P Scientific FP1S50H pins) based liquid handling protocol. This protocol used a slotted pin to transfer 50 nl of compound from a source plate well to an assay plate well containing 50 μl of cells in growth medium. […] Control wells received 50 nl of DMSO treatment for normalization and calculating IC50 values. The treated cells were incubated at 37° C. and 5% CO2 for an additional forty-two hours. Following incubation, the growth medium was removed and 50 μl of BrightGlo luminescence reagent (Promega) was added to each well of the 96-well assay plates. The plates were placed on an orbital shaker for 5 min and then luminescence was quantified on the Victor3 (Perkin Elmer) plate reader.
For assay [2], the system named is primary human fibroblasts derived from IPF patients (LL29 cells). The assay is described as follows: Inhibition of fibrosis (αSMA staining) in TGF-β1-treated primary human fibroblasts from IPF patients. In kind it is cell-based. Conditions: Fibroblast, 96 h, TGF-β1 20 ng/mL, 4 days. As to the method:
The above synthesized compounds were screened using primary human fibroblasts (derived from IPF patients) treated with TGF-β1 to determine their ability to inhibit the fibrotic process.
Compound Screening: Each compound was dissolved in DMSO as a 10 mM stock and used to prepare compound source plates. […] LL29 cells were plated at 1,500 cells/well in 80 μl/well F12 medium supplemented with 1% Fetal Bovine Serum. One hour after addition of the cells, TGF-β1 (Peprotech; 20 ng/mL) was added to the plates to induce fibrosis (ref. 1 and 2 above). Wells treated with TGF-β1 and containing DMSO were used as controls. Cells were incubated at 37° C. and 5% CO2 for 4 days. Following incubation for 4 days, SYTOX green nucleic acid stain (Life Technologies [Thermo Fisher Scientific]) was added to the wells at a final concentration of 1 uM and incubated at room temperature for 30 min. Cells were then fixed using 4% formaldehyde (Electron Microscopy Sciences), washed 3 times with PBS followed by blocking and permeabilization using 3% Bovine Serum Albumin (BSA; Sigma) and 0.3% Triton X-100 (Sigma) in PBS. Cells were then stained with antibody specific to α-smooth muscle actin (aSMA; Abcam) (ref. 1 and 2 above) in 3% Bovine Serum Albumin (BSA; Sigma) and 0.3% Triton X-100 (Sigma) in PBS, and incubated overnight at 4° C. […] Dead or apoptotic cells were excluded from analysis based on positive SYTOX green staining. % of total cells positive for αSMA were counted in each well and normalized to the average of 11 wells treated with TGF-β1 on the same plate using Dotmatics' Studies Software. […] The EC50 values are reported.

pEC50, pIC50: −log10 of the molar value.

One may read the pIC50 as the IC50 on a negative log10 scale, so that one unit is a factor of ten. By pEC50 is commonly meant −log10 of the EC50, conventionally taken in molar units. Read a high pEC50 as a low EC50. For the compound `Fc1cccc(-c2cccc3[nH]c(-c4n[nH]c5cnc(-c6cnccn6)cc45)nc23)c1` [Compound 954, 3-(4-(3-Fluorophenyl)-1H-benzo[d]imidazol-2-yl)-5-(pyrazin-2-yl)-1H-pyrazolo[3,4-c]pyridine], the pIC50 in assay [1] is 7.35. In addition, the pEC50 in assay [2] is 6.60.

In turn, `CN1CCN(c2cccc3[nH]c(-c4n[nH]c5cnc(-c6cncnc6)cc45)nc23)CC1` [Compound 234, 3-(4-(4-Methylpiperazin-1-yl)-1H-benzo[d]imidazol-2-yl)-5-(pyrimidin-5-yl)-1H-pyrazolo[3,4-c]pyridine] had a pIC50 in assay [1] of 6.10. Further, in assay [2], the negative logarithm of the EC50 (pEC50) is 8.05.

`O=C(Cc1ccccc1)Nc1cncc(-c2cc3c(-c4nc5ccccc5[nH]4)n[nH]c3cn2)c1` [Compound 244, N-(5-(3-(1H-Benzo[d]imidazol-2-yl)-1H-pyrazolo[3,4-c]pyridin-5-yl)pyridin-3-yl)-2-phenylacetamide] had a pIC50 in assay [1] of 6.68. In assay [2], this compound gave a pEC50 of 5.71.

In assay [1], `CC(C)Nc1cncc(-c2cc3c(-c4nc5c(-c6cccnc6)cccc5[nH]4)n[nH]c3cn2)c1` [Compound 90, N-Isopropyl-5-(3-(4-(pyridin-3-yl)-1H-benzo[d]imidazol-2-yl)-1H-pyrazolo[3,4-c]pyridin-5-yl)pyridin-3-amine] had a pIC50 of 7.86. The compound also gave a pEC50 in assay [2] of 8.05.

The compound `Cc1ccc(-c2cccc3[nH]c(-c4n[nH]c5cnc(-c6cncc(NC(=O)C7CCCC7)c6)cc45)nc23)s1` [Compound 385, N-(5-(3-(4-(5-Methylthiophen-2-yl)-1H-benzo[d]imidazol-2-yl)-1H-pyrazolo[3,4-c]pyridin-5-yl)pyridin-3-yl)cyclopentanecarboxamide] gave a pIC50 in assay [1] of 7.48. This compound also had a pEC50 in assay [2] of 7.70.

Regarding `O=C(Nc1cncc(-c2cc3c(-c4nc5c(-c6ccsc6)cccc5[nH]4)n[nH]c3cn2)c1)c1ccccc1` [Compound 271, N-(5-(3-(4-(Thiophen-3-yl)-1H-benzo[d]imidazol-2-yl)-1H-pyrazolo[3,4-c]pyridin-5-yl)pyridin-3-yl)benzamide], the pIC50 in assay [1] is 7.27. The compound further showed a pEC50 in assay [2] of 8.05.

`CC(C)(C)C(=O)Nc1cncc(-c2cc3c(-c4nc5c(-c6ccsc6)cccc5[nH]4)n[nH]c3cn2)c1` [Compound 268, N-(5-(3-(4-(Thiophen-3-yl)-1H-benzo[d]imidazol-2-yl)-1H-pyrazolo[3,4-c]pyridin-5-yl)pyridin-3-yl)pivalamide] had a pIC50 in assay [1] of 7.12. Further, the pEC50 in assay [2] is 8.05.

Turning to `CCNCc1cncc(-c2cc3c(-c4nc5c(-c6ccoc6)cccc5[nH]4)n[nH]c3cn2)c1` [Compound 292, N-((5-(3-(4-(Furan-3-yl)-1H-benzo[d]imidazol-2-yl)-1H-pyrazolo[3,4-c]pyridin-5-yl)pyridin-3-yl)methyl)ethanamine], the pIC50 in assay [1] was 7.53. In addition, the negative-log EC50 (pEC50) in assay [2] is 8.05.

In turn, `Cc1ccc(-c2cccc3[nH]c(-c4n[nH]c5cnc(-c6cncc(CN7CCCCC7)c6)cc45)nc23)s1` [Compound 379, 3-(4-(5-Methylthiophen-2-yl)-1H-benzo[d]imidazol-2-yl)-5-(5-(piperidin-1-ylmethyl)pyridin-3-yl)-1H-pyrazolo[3,4-c]pyridine] showed a pIC50 in assay [1] of 6.44. This compound had a pEC50 in assay [2] of 8.05.

`c1ccc(CNCc2cncc(-c3cc4c(-c5nc6c(-c7ccsc7)cccc6[nH]5)n[nH]c4cn3)c2)cc1` [Compound 283, N-Benzyl-1-(5-(3-(4-(thiophen-3-yl)-1H-benzo[d]imidazol-2-yl)-1H-pyrazolo[3,4-c]pyridin-5-yl)pyridin-3-yl)methanamine] gave a pIC50 in assay [1] of 7.51. In assay [2], this compound had a negative-log EC50 (pEC50) of 8.05.

In turn, `Cc1ccc(-c2cccc3[nH]c(-c4n[nH]c5cnc(-c6cncc(NC(=O)CC(C)C)c6)cc45)nc23)s1` [Compound 366, 3-Methyl-N-(5-(3-(4-(5-methylthiophen-2-yl)-1H-benzo[d]imidazol-2-yl)-1H-pyrazolo[3,4-c]pyridin-5-yl)pyridin-3-yl)butanamide] showed a pIC50 in assay [1] of 7.51. Also, the pEC50 in assay [2] is 6.65.

With `CS(=O)(=O)NCc1cc(F)cc(-c2cccc3[nH]c(-c4n[nH]c5cnc(-c6cncnc6)cc45)nc23)c1` [Compound 442, N-(3-Fluoro-5-(2-(5-(pyrimidin-5-yl)-1H-pyrazolo[3,4-c]pyridin-3-yl)-1H-benzo[d]imidazol-4-yl)benzyl)methanesulfonamide], in assay [1], the pIC50 was 7.59. The same compound gave a pEC50 in assay [2] of 8.05.

`c1ccc(-c2cccc3[nH]c(-c4n[nH]c5cnc(-c6cncc(CNCC7CCCC7)c6)cc45)nc23)nc1` [Compound 154, 1-Cyclopentyl-N-((5-(3-(4-(pyridin-2-yl)-1H-benzo[d]imidazol-2-yl)-1H-pyrazolo[3,4-c]pyridin-5-yl)pyridin-3-yl)methyl)methanamine]: in assay [1], the pIC50 was 6.22. For the same compound, in assay [2], the pEC50 was 8.05.

For `CC(=O)c1ccc(-c2cccc3[nH]c(-c4n[nH]c5cnc(-c6cccnc6)cc45)nc23)s1` [Compound 394, 1-(5-(2-(5-(Pyridin-3-yl)-1H-pyrazolo[3,4-c]pyridin-3-yl)-1H-benzo[d]imidazol-4-yl)thiophen-2-yl)ethan-1-one], in assay [1], the pIC50 was 7.35. The same compound had a pEC50 in assay [2] of 6.96.

For the compound `O=C(Nc1cncc(-c2cc3c(-c4nc5c(-c6ccc(F)cc6)cccc5[nH]4)n[nH]c3cn2)c1)C1CCC1` [Compound 46, N-(5-(3-(4-(4-Fluorophenyl)-1H-benzo[d]imidazol-2-yl)-1H-pyrazolo[3,4-c]pyridin-5-yl)pyridin-3-yl)cyclobutanecarboxamide], the pIC50 in assay [1] was 7.31. In assay [2], the pEC50 was 7.03.

`CC(C)C(=O)Nc1cncc(-c2cc3c(-c4nc5c(-c6ccoc6)cccc5[nH]4)n[nH]c3cn2)c1` [Compound 295, N-(5-(3-(4-(Furan-3-yl)-1H-benzo[d]imidazol-2-yl)-1H-pyrazolo[3,4-c]pyridin-5-yl)pyridin-3-yl)isobutyramide] had a pIC50 in assay [1] of 7.41. Further, the pEC50 in assay [2] was 6.60.

In turn, `Cc1cn(-c2cccc3[nH]c(-c4n[nH]c5cnc(-c6cncc(NC(=O)C7CCC7)c6)cc45)nc23)cn1` [Compound 202, N-(5-(3-(4-(4-Methyl-1H-imidazol-1-yl)-1H-benzo[d]imidazol-2-yl)-1H-pyrazolo[3,4-c]pyridin-5-yl)pyridin-3-yl)cyclobutanecarboxamide] had a pIC50 in assay [1] of 7.20. Also, in assay [2], the pEC50 is 8.05.

Consider `CC(C)C(=O)Nc1cncc(-c2cc3c(-c4nc5c(-c6ccccc6F)cccc5[nH]4)n[nH]c3cn2)c1` [Compound 61, N-(5-(3-(4-(2-Fluorophenyl)-1H-benzo[d]imidazol-2-yl)-1H-pyrazolo[3,4-c]pyridin-5-yl)pyridin-3-yl)isobutyramide], for which the pIC50 in assay [1] is 7.09. The pEC50 in assay [2] is 7.09.

Compound `CN(C)c1cncc(-c2cc3c(-c4nc5c(-c6cccc(F)c6)cccc5[nH]4)n[nH]c3cn2)c1` [Compound 7, 5-(3-(4-(3-Fluorophenyl)-1H-benzo[d]imidazol-2-yl)-1H-pyrazolo[3,4-c]pyridin-5-yl)-N,N-dimethylpyridin-3-amine] had a pIC50 in assay [1] of 7.37. In assay [2], the pEC50 is 7.77.

For the origin of these results see patent publication US10202377B2, “3-(1H-benzo[D]imidazol-2-yl)-1H-pyrazolo[3,4-C]pyridine and therapeutic uses thereof” (Samumed, LLC, priority 2014, dated 2019).
